What was measured:
[1] = test system: cytosolic ribosomal subunits; assay: iSPP assay, P. falciparum lysate; type: binding, Plasmodium falciparum; conditions: lysate incubated with 100 µM; 104 stabilized proteins in total for 31
Text: To further elucidate the MoA of 31, an integral solvent‐induced protein precipitation (iSPP) assay was employed as recently described.^[ [26] ^] iSPP utilizes a solvent mixture (acetone/ethanol/acetic acid) to induce protein denaturation, allowing the detection of drug‐protein interactions by quantitative mass spectrometry based on changes in protein stability due to compound binding using cellular lysates from in vitro blood‐stage P. falciparum parasites.
P. falciparum NF54 lysates were extracted as described in ^[26^] . The parasite asynchronous culture was extracted once 3-5% parasitemia was reached. Saponin lysis was done as described in 2.2.10. […] The soluble protein fraction (supernatant) was collected and the protein content was quantified using the BCA assay (Pierce™ BCA Protein Assay Kit, Thermo Fisher Scientific). […]
The raw LFQ-DIA intensity values of biological replicates across all conditions were normalized to the median abundance using Excel. […] Dose-dependent curves were generated using normalized protein intensity values, expressed as a ratio to the vehicle control. […]

[2] = test system: mRNA translation in NF54 trophozoite-stage parasites; assay: Surface sensing of translation (SUnSET) assay; type: cell-based, Plasmodium falciparum; conditions: trophozoites 30–35 hpi; 31 at 3x, 50x, 100x IC50; 34 and pyrimethamine at 3x IC50
Method: To confirm the role of 31 as a translation inhibitor, the surface sensing of translation (SUnSET) assay was employed. This involves incubating the culture with a translation inhibitor, puromycin, a structural analogue of aminoacyl tRNA. Puromycin is incorporated in the nascent polypeptide chain and prevents further elongation. When puromcyin is used in sub‐lethal concentrations, incorporation of puromycin in neosynthesized protein correlates with the levels of mRNA translation (Figure 3c, lane2).^[ [27] ^] […] This trend was further confirmed by the quantified western blot signals (Figures 3d and S4C) that are consistent with the iSPP profiling results.
SUnSET: The SUnSET assay was done as described in. ^[27^]Tightly synchronized NF54 wild type parasites were treated with the compounds for 4h at 30-35 hpi (trophozoite stage). The following compounds and amounts used were: cycloheximide (3xIC50, 1,2 µM; Calbiochem), pyrimethamine (3xIC50, 21 nM; MedChemExpress), 34 (3xIC50, 12 µM), and 31 (3xIC50, 12 nM; 50xIC50, 200 nM; 100xIC50, 400 nM). Parasites were incubated with 1 µg mL^-1 (Sigma P8833) for 1 h at 37 °C and saponin lysis was performed.
Saponin lysis and Western blot: Saponin lysis was done on infected RBC at ~5% parasitemia to lyse erythrocytes. Parasite cultures were centrifuged at 1,200 g for 5 min at room temperature. Once the supernatant was discarded, 10 volumes of ice-cold 0.1% (w/v) saponin (Calbiochem 558255, dissolved in PBS, and filtered with 0,22) was added, incubated on ice for 10 min and centrifuged for 2,272 g for 15 min at 4 °C. […] The membrane was washed 3 times in PBS-T (3 min incubation in each washing step) and the signal was detected using the chemiluminescent substrate SuperSignal West Pico Plus (Thermo Scientific, REF 34580) and the imaging system Vilber Fusion FX7 Edge 17.10 SN. Quantification of Western blot signal was done by measuring the integrated density of each lane using ImageJ analysis software (version 1.54p). […]

CN1CCN(Cc2ccc(O)c(NC(=O)c3cccc(Oc4cc(C(F)(F)F)ccn4)c3)c2)CC1 [Compound 31, N-(2-hydroxy-5-((4-methylpiperazin-1-yl)methyl)phenyl)-3-((4-(trifluoromethyl)pyridin-2-yl)oxy)benzamide]
significantly stabilized proteins belonging to cytosolic ribosomal subunits [1]: 12
mRNA translation (puromycin incorporation) [2]: concentration‐dependent reduction in translation

O=C(Nc1cc(CN2CCOCC2)ccc1F)c1cccc(Oc2cc(C(F)(F)F)ccn2)c1 [Compound 34, N-(2-Fluoro-5-(morpholinomethyl)phenyl)-3-((4-(trifluoromethyl)pyridin-2-yl)oxy)benzamide]
significantly stabilized proteins belonging to cytosolic ribosomal subunits [1]: failed to stabilize any cytosolic ribosomal proteins
mRNA translation (puromycin incorporation) [2]: did not reduce mRNA translation

From paper PMC12668308, “A Novel Antimalarial Agent that Inhibits Protein Synthesis in Plasmodium falciparum” (Angewandte Chemie (International Ed. in English), 2025)
